Like-named read-outs stand apart in the source and are kept apart here.
What was measured:
Assay type in all cases: in vivo
[1] = test system: Tetranychus urticae; assay: Tetranychus urticae (two-spotted spider mite), bean leaf disc test; conditions: foliar, 192 h, read-out: control (mortality on mixed population, mobile stages)
Protocol: Tetranychus urticae (Two-Spotted Spider Mite):
Bean leaf discs on agar in 24-well microtiter plates were sprayed with aqueous test solutions prepared from 10′000 ppm DMSO stock solutions. After drying the leaf discs were infested with a mite population of mixed ages. The samples were assessed for mortality on mixed population (mobile stages) 8 days after infestation.

[2] = test system: Thrips tabaci; assay: Thrips tabaci (onion thrips), sunflower leaf disc test; conditions: foliar, 144 h, read-out: control (mortality)
Protocol: Thrips tabaci (Onion Thrips):
Sunflower leaf discs were placed on agar in 24-well microtiter plates and sprayed with aqueous test solutions prepared from 10′000 ppm DMSO stock solutions. After drying the leaf discs were infested with a thrips population of mixed ages. The samples were assessed for mortality 6 days after infestation.

[3] = test system: Myzus persicae; assay: Myzus persicae (green peach aphid), sunflower leaf disc spray test; conditions: foliar, 144 h
Protocol: (§1) Myzus persicae (Green Peach Aphid):
Sunflower leaf discs were placed on agar in a 24-well microtiter plate and sprayed with test solutions at an application rate of 200 ppm. After drying, the leaf discs were infested with an aphid population of mixed ages. After an incubation period of 6 DAT, samples were checked for mortality. The following compounds gave at least 80% mortality of Myzus persicae: compounds 1,2, 3, 4, 5, 6, 11, 12, 15, 17, 18, 19, 20, 23, 24, 25, 26, 27, 30, 32, 33, 34 35, 41, 43, 44, 47, 50, 55, 58, 59, 60, 61, 62, 63, 64, 65 and 66.

[4] = test system: Spodoptera littoralis; assay: Spodoptera littoralis (Egyptian cotton leaf worm), cotton leaf disc spray test; conditions: foliar, 72 h, read-out: control (at least one of mortality, anti-feedant effect, growth inhibition); for percent control (mortality, anti-feedant effect or growth inhibition) at 200 ppm: application rate 200 ppm, L1 larvae, 3 days after infestation
Protocol: Spodoptera littoralis (Egyptian Cotton Leaf Worm)
Cotton leaf discs were placed on agar in 24-well microtiter plates and sprayed with aqueous test solutions prepared from 10′000 ppm DMSO stock solutions. After drying the leaf discs were infested with five L1 larvae. The samples were assessed for mortality, anti-feedant effect, and growth inhibition in comparison to untreated samples 3 days after infestation. Control of Spodoptera littoralis by a test sample is when at least one of mortality, anti-feedant effect, and growth inhibition is higher than the untreated sample.

[5] = test system: Diabrotica balteata; assay: Diabrotica balteata (corn root worm), maize sprout test; conditions: 96 h, read-out: control (mortality and growth inhibition)
Protocol: Diabrotica balteata, (Corn Root Worm)
Maize sprouts, placed on an agar layer in 24-well microtiter plates were treated with aqueous test solutions prepared from 10′000 ppm DMSO stock solutions by spraying. After drying, the plates were infested with L2 larvae (6 to 10 per well). The samples were assessed for mortality and growth inhibition in comparison to untreated samples 4 days after infestation.

[6] = test system: Plutella xylostella; assay: Plutella xylostella (diamond back moth), artificial diet test; conditions: 120 h, read-out: control (mortality and growth inhibition)
Protocol: Plutella xylostella (Diamond Back Moth):
24-well microtiter plates with artificial diet were treated with aqueous test solutions prepared from 10′000 ppm DMSO stock solutions by pipetting. After drying, the plates were infested with L2 larvae (10 to 15 per well). The samples were assessed for mortality and growth inhibition in comparison to untreated samples 5 days after infestation.

[7] = test system: Euschistus heros; assay: Euschistus heros (neotropical brown stink bug), soybean leaf test; conditions: 120 h, read-out: effect in at least one of the two categories (mortality or growth inhibition); for percent effect (mortality or growth inhibition) at 200 ppm: application rate 200 ppm, N2 nymphs, 5 days after infestation
Protocol: Euschistus heros (Neotropical Brown Stink Bug):
Soybean leaves on agar in 24-well microtiter plates were sprayed with aqueous test solutions prepared from 10′000 ppm DMSO stock solutions. After drying the leaves were infested with N2 nymphs. The samples were assessed for mortality and growth inhibition in comparison to untreated samples 5 days after infestation.

[8] = test system: Myzus persicae; assay: Myzus persicae (green peach aphid), sucrose solution / Parafilm test; conditions: 120 h, test rate of 12 ppm, sucrose solution, 5 days after infestation, read-out: mortality
Excerpt: as §1
Test compounds were applied by pipette into 24 well plates and mixed with Sucrose solution. Application rate: 12.5 ppm. The plates were closed with a stretched parafilm. A plastic stencil with 24 holes is placed onto the plate and infested pea seedlings were placed directly on the Parafilm. The infested plate is closed with a gel blotting paper and another plastic stencil and then turned upside down. 5 days after infestation the samples were checked on mortality.

[9] = application rate 200 ppm, 8 days after infestation
[10] = application rate 200 ppm, mixed ages, 6 days after infestation
[11] = application rate 200 ppm, mixed ages, 6 DAT, read-out: mortality
[12] = application rate 200 ppm, L2 larvae, 4 days after infestation
[13] = application rate 200 ppm, L2 larvae, 5 days after infestation

Cn1nc(OC(F)(F)C(F)Br)c(C(F)(F)F)c1-n1cc(-c2ccc(Cl)c(C(=O)NC3CC3)c2)cn1 (stereo not drawn) [compound 43]
≥ 80%: mortality at 200 ppm [1, 9] | mortality at 200 ppm [2, 10] | mortality at 200 ppm [3, 11] | percent control (mortality, anti-feedant effect or growth inhibition) at 200 ppm [4] | mortality at 200 ppm [5, 12] | mortality at 200 ppm [6, 13] | percent effect (mortality or growth inhibition) at 200 ppm [7]

Cn1nc(OC(F)(F)C(F)Cl)c(C(F)(F)F)c1-n1cc(-c2ccc(Cl)c(C(=O)NC3(C#N)CC3)c2)cn1 (stereo not drawn) [compound 44]
≥ 80%: mortality at 200 ppm [1, 9] | mortality at 12 ppm [8] | mortality at 200 ppm [2, 10] | mortality at 200 ppm [3, 11] | mortality at 200 ppm [5, 12] | percent effect (mortality or growth inhibition) at 200 ppm [7]

Cn1nc(OC(F)=C(F)C(F)(F)F)c(C(F)(F)F)c1-n1cc(-c2ccc(Cl)c(C(=O)NC3CC3)c2)cn1 [compound 53]
≥ 80%: mortality at 200 ppm [1, 9] | mortality at 12 ppm [8] | mortality at 200 ppm [2, 10] | percent control (mortality, anti-feedant effect or growth inhibition) at 200 ppm [4] | mortality at 200 ppm [5, 12] | mortality at 200 ppm [6, 13] | percent effect (mortality or growth inhibition) at 200 ppm [7]

Cc1ccc(-c2cnn(-c3c(C(F)(F)F)c(OC(F)(F)C(F)C(F)(F)F)nn3C)c2)cc1C(=O)NC1CC1 (stereo not drawn) [compound 58]
≥ 80%: mortality at 200 ppm [1, 9] | mortality at 12 ppm [8] | mortality at 200 ppm [2, 10] | mortality at 200 ppm [3, 11] | percent control (mortality, anti-feedant effect or growth inhibition) at 200 ppm [4] | mortality at 200 ppm [5, 12] | mortality at 200 ppm [6, 13]

Cn1nc(OC(F)(F)C(F)OC(F)(F)F)c(C(F)(F)F)c1-n1cc(-c2cnc(Cl)c(C(=O)NC3(C#N)CC3)c2)cn1 (stereo not drawn) [compound 61]
≥ 80%: mortality at 200 ppm [1, 9] | mortality at 200 ppm [2, 10] | mortality at 200 ppm [3, 11] | percent control (mortality, anti-feedant effect or growth inhibition) at 200 ppm [4] | mortality at 200 ppm [5, 12] | mortality at 200 ppm [6, 13] | percent effect (mortality or growth inhibition) at 200 ppm [7]

Cn1nc(OC(F)(F)C(F)OC(F)(F)F)c(C(F)(F)F)c1-n1cc(-c2cnc(Cl)c(C(=O)NC3CC3)c2)cn1 (stereo not drawn) [compound 62]
≥ 80%: mortality at 200 ppm [1, 9] | mortality at 200 ppm [2, 10] | mortality at 200 ppm [3, 11] | percent control (mortality, anti-feedant effect or growth inhibition) at 200 ppm [4] | mortality at 200 ppm [5, 12] | mortality at 200 ppm [6, 13] | percent effect (mortality or growth inhibition) at 200 ppm [7]

Cn1nc(SC(F)(F)F)c(Br)c1-n1cc(-c2ccc(Cl)c(C(=O)NC3CC3)c2)cn1 [compound 63]
≥ 80%: mortality at 200 ppm [1, 9] | mortality at 200 ppm [2, 10] | mortality at 200 ppm [3, 11] | percent control (mortality, anti-feedant effect or growth inhibition) at 200 ppm [4] | mortality at 200 ppm [5, 12] | mortality at 200 ppm [6, 13] | percent effect (mortality or growth inhibition) at 200 ppm [7]

Cn1nc(SC(F)(F)C(F)(F)C(F)(F)F)c(Br)c1-n1cc(-c2ccc(Cl)c(C(=O)NC3CC3)c2)cn1 [compound 64]
≥ 80%: mortality at 200 ppm [1] | mortality at 200 ppm [2] | mortality at 200 ppm [3] | mortality at 200 ppm [4] | mortality at 200 ppm [5] | mortality at 200 ppm [6] | percent control (mortality or growth inhibition) at 200 ppm [7]

Cn1nc(OC(F)(F)C(F)C(F)(F)F)c(C(F)(F)F)c1-n1cc(-c2cnc(Cl)c(C(=O)NC3(C#N)CC3)c2)cn1 (stereo not drawn) [compound 65]
≥ 80%: mortality at 200 ppm [1, 9] | mortality at 200 ppm [2, 10] | mortality at 200 ppm [3, 11] | mortality at 200 ppm [5, 12] | mortality at 200 ppm [6, 13] | percent effect (mortality or growth inhibition) at 200 ppm [7]

Cn1nc(OC(F)(F)C(F)C(F)(F)F)c(C(F)(F)F)c1-n1cc(-c2cnc(Cl)c(C(=O)NC3CC3)c2)cn1 (stereo not drawn) [compound 66]
≥ 80%: mortality at 200 ppm [1, 9] | mortality at 200 ppm [2, 10] | mortality at 200 ppm [3, 11] | mortality at 200 ppm [6, 13] | percent effect (mortality or growth inhibition) at 200 ppm [7]

Source: patent US10750742B2, “Pesticidally active pyrazole derivatives” (SYNGENTA PARTICIPATIONS AG, priority 2015, dated 2020)
